Laboratory results from patent US10414718B2, “Dezocine analogue” (priority 2016, dated 2019).
Like-named read-outs stand apart in the source and are kept apart here.

What was measured:
[1] = Pharmacokinetics of intramuscular injection of Compound 21 and prodrug thereof in rats; conditions: SD, in vivo, im, rat
Text: 3. Pharmacokinetics of Intramuscular Injection of Compound 21 and Prodrug Thereof in Rats
Mixing the test compound with an appropriate amount of sesame oil, followed by vortex and sonicate, to prepare and obtain 25 μmol/mL homogeneous suspension. […] Collecting whole blood in certain time, adding precipitant (acetonitrile, methanol and analytical internal standard) and centrifugating.

[2] = molecular target: T1, μ opioid receptor (Homo sapiens, UniProt P35372); assay: FLIPR intracellular calcium signal test, HEK293-μ cells; type: cell-based; conditions: for EC50: EC50 (activation) test, read-out: Mu receptor EC50; for IC50: IC50 (inhibition) test against EC80 of positive agonist, read-out: Mu receptor IC50
T1 construct: expressed in transfected cells
Description: (§1) Fluorescence imaging plate reader FLIPR was used to detect changes of intracellular calcium signals. EC50 and IC50 values of the compounds were used as indicators to evaluate the activation or inhibition of the compounds on μ, κ, and δ opioid receptors.
(§2) Cell lines: HEK293-μ, HEK293-κ and HEK293-δ, stable-transfected cell lines HEK293-μ, HEK293-κ and HEK293-δ; Cell culture media (DMEM, Invitrogen #11965118, 10% fetal bovine serum Invitrogen #10099141, Geneticin Selective Antibiotic (G418) 300 μg/mL, Invitrogen #10131027, Blasticidin-S HCL 2 ug/mL Invitrogen #A1113902)
(§3) 1. Cell Seeding (HEK293-μ, HEK293-κ and HEK293-δ Cells)
(§4) 1) Preheating medium, pancreatic enzyme, and DPBS in a 37° C. water bath. Aspirating the culture medium from the cell culture flask and washing it with 10 mL DPBS;
(§5) 2) Adding the preheated pancreatic enzyme solution to the cell culture flask, rotating the flask slightly to make the pancreatic enzymes evenly cover the cell surface of the flask, and then putting it into a 37° C., 5% CO2 incubator to digest for 1-2 minutes;
(§6) 3) Suspending the cells with 10-15 mL culture medium in each T150 cm^2 cell culture flask, centrifugating at 800 rpm for 5 minutes, and resuspending the cells with 10 mL culture medium, aspirating 1 mL cell resuspension to be counted with Vi-cell;
(§7) 4) Diluting HEK293-μ, HEK293-κ and HEK293-δ cells to 5×10^5/mL with culture medium, use multichannel pipette to add diluted cells into 384 plate (Greiner #781946) (50 μL/well, 25000 cells/well for HEK293-μ, HEK293-κ and HEK293-δ cells). Placing the cell plate in a 37° C., 5% CO2 incubator overnight.
(§8) 2. Adding Compound Samples:
(§9) 1) Diluting the compound to 20 mM with DMSO, 3 fold diluted, 8 gradients, double reduplicative wells, and adding it to the compound plate using an Echo ultrasonic liquid handler device (Echo liquid handler).
(§10) 1) Washing off the cell culture medium in 384 plate with vacuum pump, adding 20 μL Fluo-4 Direct fluorescent dye, then incubating in a 37° C., 5% CO2 incubator for 50 minutes, followed by equilibrating at room temperature for 10 minutes.
(§11) 2) EC50 test: Adding 20 uL HBSS buffer (containing 20 mM HEPES) to the compound plate, mixing well and centrifugating. Placing the cell plate and compound plate into FLIPR and reading the fluorescence value.
(§12) Calculating the EC80 value with the EC50 value of the positive agonist, preparing 4× EC80 solution, adding it to the 384 compound plate by multichannel pipette, and mixing well and centrifugating.
(§13) 4) IC50 test: In FLIPR, successively placing 4× EC80 plate, cell plate, FLIPR tip, running the program and reading the fluorescence value.
(§14) 4. Data Analyzing: Using Prism 5.0 to Analyze the Data and Calculate the EC50 and IC50 Values of the Compounds.

[3] = molecular target: T2, κ opioid receptor (Homo sapiens, UniProt P41145); assay: FLIPR intracellular calcium signal test, HEK293-κ cells; type: cell-based; conditions: for EC50: EC50 (activation) test, read-out: Kapp receptor EC50; for IC50: IC50 (inhibition) test against EC80 of positive agonist, read-out: Kapp receptor IC50
T2 construct: expressed in transfected cells
Description: as §1, §2, §3, §4, §5, §6, §7, §8, §9, §10, §11, §12, §13, §14

[4] = molecular target: T3, δ opioid receptor (Homo sapiens, UniProt P41143); assay: FLIPR intracellular calcium signal test, HEK293-δ cells; type: cell-based; conditions: for EC50: EC50 (activation) test, read-out: Delt receptor EC50; for IC50: IC50 (inhibition) test against EC80 of positive agonist, read-out: Delt receptor IC50
T3 construct: expressed in transfected cells
Description: as §1, §2, §3, §4, §5, §6, §7, §8, §9, §10, §11, §12, §13, §14

[5] = Brain distribution study of intravenous injection in rats; conditions: rat, 1 mg/kg, brain tissue to plasma concentration ratio; for B/P ratio (0.25 h): 0.25 h after dosing; for B/P ratio (2 h): 2 h after dosing
Description: 2. Brain Distribution Study of Intravenous Injection of Dezocine and Analogues Thereof in Rats
Intravenously injecting the test compound solution in the same manner as example 1 at a dose of 1 mg/kg. Executing animals with carbon dioxide 15 minutes and 2 hours after dosing, collecting whole blood and brain tissue sample, centrifugating the whole blood to obtain plasma, and homogenizing the brain tissue with triple volumes of deionized water. Analyzing drug concentration of the plasma and brain homogenate samples by LC-MS/MS method, and calculating the concentration ratio of brain tissue to plasma (B/P ratio).

[6] = Pharmacokinetic study of intravenous injection in rats; conditions: SD, rat, plasma, 1 mg/kg
Text: Through the in vivo drug metabolism test in rats, values such as Cmax, t1/2, AUC, MRT and B/P ratio of the compound in vivo were used as indicators to evaluate the metabolism of the compound in rats.
1. Pharmacokinetic Study of Intravenous Injection of Dezocine and Analogues Thereof in Rats
Mixing the test compound with an appropriate amount of physiological saline solution of 20% polyethylene glycol 400, followed by vortex and sonicate, and adjusting the pH to 4-5 with hydrochloric acid to obtain 5 mg/mL approximately clear solution, filtering the solution by microporous filtering film to be used. Selecting 6 to 9 weeks old SD rats (Shanghai Sleek Laboratory Animal Co., Ltd.) and intravenously injecting the test compound solution at a dose of 1 mg/kg. Collecting whole blood in certain time to prepare and obtain plasma. Analyzing drug concentrations by LC-MS/MS method and calculating pharmacokinetic parameters using Phoenix WinNonlin software (Pharsight, USA).

T1 sequence (P35372 whole entry): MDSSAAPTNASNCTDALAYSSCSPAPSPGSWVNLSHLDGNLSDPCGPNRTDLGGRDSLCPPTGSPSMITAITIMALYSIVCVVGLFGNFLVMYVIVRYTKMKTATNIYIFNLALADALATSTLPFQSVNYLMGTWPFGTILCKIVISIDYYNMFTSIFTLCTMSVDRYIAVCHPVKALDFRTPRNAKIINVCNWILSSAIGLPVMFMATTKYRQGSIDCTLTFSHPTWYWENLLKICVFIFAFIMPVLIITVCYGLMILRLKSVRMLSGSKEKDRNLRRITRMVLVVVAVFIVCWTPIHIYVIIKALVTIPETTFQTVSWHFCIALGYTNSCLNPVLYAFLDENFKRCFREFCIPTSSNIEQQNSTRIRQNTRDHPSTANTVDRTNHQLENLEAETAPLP
T2 sequence (P41145 whole entry): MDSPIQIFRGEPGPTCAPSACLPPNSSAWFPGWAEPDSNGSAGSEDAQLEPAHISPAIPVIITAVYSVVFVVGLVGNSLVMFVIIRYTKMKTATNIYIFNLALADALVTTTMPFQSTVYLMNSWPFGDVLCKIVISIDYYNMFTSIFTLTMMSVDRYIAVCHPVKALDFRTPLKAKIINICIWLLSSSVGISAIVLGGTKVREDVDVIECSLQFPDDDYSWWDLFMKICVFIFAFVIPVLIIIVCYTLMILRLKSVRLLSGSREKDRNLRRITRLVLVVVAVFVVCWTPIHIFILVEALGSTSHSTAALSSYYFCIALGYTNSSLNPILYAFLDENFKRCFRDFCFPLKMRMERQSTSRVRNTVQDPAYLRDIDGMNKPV
T3 sequence (P41143 whole entry): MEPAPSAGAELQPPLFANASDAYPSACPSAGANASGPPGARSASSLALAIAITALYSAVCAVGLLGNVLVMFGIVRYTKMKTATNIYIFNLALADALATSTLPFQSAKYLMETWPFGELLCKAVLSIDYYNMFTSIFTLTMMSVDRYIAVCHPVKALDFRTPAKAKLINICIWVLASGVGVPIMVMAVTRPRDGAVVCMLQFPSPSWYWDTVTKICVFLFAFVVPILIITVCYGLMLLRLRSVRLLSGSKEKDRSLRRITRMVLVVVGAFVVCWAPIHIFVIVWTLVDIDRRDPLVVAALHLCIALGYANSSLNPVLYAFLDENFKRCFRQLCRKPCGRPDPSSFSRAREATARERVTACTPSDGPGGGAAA

SMILES	EC50 [2] [nM]	IC50 [2] [nM]	EC50 [3] [µM]	IC50 [3] [µM]	EC50 [4] [µM]	IC50 [4] [µM]	B/P ratio (0.25 h) [5]	B/P ratio (2 h) [5]	AUC(0-t) [6] [µM·h]	C0 [6] [nM]	MRT last [6] [h]	Vd [6] [L/kg]	clearance [6] [mL/min/kg]	half-life [6] [min]	other results
C[C@@]12CCCCC[C@@H](Cc3c(F)cc(O)cc31)[C@@H]2N [Compound 21]	≤ 100	≤ 100	> 100	1 to 10	> 100	1 to 10	13.3	19.8	0.387	493	1.35	16.2	155	85.2	half-life ([1]; 40 umol/kg, Compound 21 itself dosed at 40 μmol/kg, sesame oil suspension): 252 min; AUC(0-t) ([1]; 40 umol/kg, Compound 21 itself dosed at 40 μmol/kg, sesame oil suspension, read-out: AUC0-last): 3.99 µM·h; Cmax ([1]; 40 umol/kg, Compound 21 itself dosed at 40 μmol/kg, sesame oil suspension, read-out: Cmax): 1750 nM; MRT last ([1]; 40 umol/kg, Compound 21 itself dosed at 40 μmol/kg, sesame oil suspension, read-out: MRT0-last): 2.82 h; Tmax ([1]; 40 umol/kg, Compound 21 itself dosed at 40 μmol/kg, sesame oil suspension, read-out: Tmax): 30 min
C[C@]12CCCCC[C@@H](Cc3c(Cl)cc(O)cc31)[C@@H]2N [Compound 23]	≤ 100	≤ 100	> 100	1 to 10	> 100	> 100	16.7	27.9	0.341	362	1.65	20.6	165	96	–
C[C@@]12CCCCC[C@@H](Cc3c(F)cc(OC(=O)CCCCC(=O)Oc4cc(F)c5c(c4)[C@@]4(C)CCCCC[C@@H](C5)[C@@H]4N)cc31)[C@@H]2N [Compound 34]	–	–	–	–	–	–	–	–	–	–	–	–	–	–	AUC(0-t) ([1]; 20 umol/kg, carboxylic diester prodrug 20 μmol/kg, analyte: prodrug itself, read-out: AUC0-last of the prodrug): 0.00295 µM·h; Cmax ([1]; 20 umol/kg, carboxylic diester prodrug 20 μmol/kg, analyte: prodrug itself, read-out: Cmax of the prodrug): 3.91 nM; MRT last ([1]; 20 umol/kg, carboxylic diester prodrug 20 μmol/kg, analyte: prodrug itself, read-out: MRT0-last of the prodrug): 0.539 h; Tmax ([1]; 20 umol/kg, carboxylic diester prodrug 20 μmol/kg, analyte: prodrug itself, read-out: Tmax of the prodrug): 15 min
